In PMC7465821, “Isolation of Three Lycorine Type Alkaloids from Rhodolirium speciosum (Herb.) Ravenna Using pH-Zone-Refinement Centrifugal Partition Chromatography and Their Acetylcholinesterase Inhibitory Activities” (Metabolites, 2020):

Target: acetylcholinesterase (AChE) (Electrophorus electricus, UniProt O42275)
Assay: Ellman spectrophotometric microplate assay, […] nm
Type: biochemical

Chain of acetylcholinesterase (AChE) (O42275 24-633): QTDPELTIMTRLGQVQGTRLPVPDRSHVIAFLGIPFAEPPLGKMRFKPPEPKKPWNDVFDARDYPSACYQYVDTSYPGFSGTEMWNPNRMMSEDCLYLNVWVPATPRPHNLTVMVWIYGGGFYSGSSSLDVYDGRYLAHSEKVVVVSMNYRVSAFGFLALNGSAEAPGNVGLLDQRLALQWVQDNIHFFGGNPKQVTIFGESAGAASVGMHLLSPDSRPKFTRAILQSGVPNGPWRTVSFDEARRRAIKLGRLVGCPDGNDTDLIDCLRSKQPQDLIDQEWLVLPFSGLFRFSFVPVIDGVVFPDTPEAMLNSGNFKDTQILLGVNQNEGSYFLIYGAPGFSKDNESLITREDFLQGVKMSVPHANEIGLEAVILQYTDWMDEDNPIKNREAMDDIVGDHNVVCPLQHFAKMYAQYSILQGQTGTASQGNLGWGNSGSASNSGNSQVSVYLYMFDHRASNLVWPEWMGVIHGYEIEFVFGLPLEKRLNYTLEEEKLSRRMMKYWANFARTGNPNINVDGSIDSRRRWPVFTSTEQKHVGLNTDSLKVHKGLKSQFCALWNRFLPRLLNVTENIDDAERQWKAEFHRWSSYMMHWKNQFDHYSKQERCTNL

SMILES | IC50 [µM]
CC(=O)OC1[C@@H](OC(C)=O)C=C2CC[N+]3=Cc4cc5c(cc4[C@H]1[C@@H]23)OCO5 (stereo partly drawn) [compound 3, 1,2-O-diacetyl-5,6-dehydrolycorine] | 46.3
CC(=O)O[C@H]1[C@H]2c3cc4c(cc3CN3CCC(=C[C@@H]1O)[C@H]23)OCO4 [compound 2, 1-O-acetyl-lycorine] | 1430
CC(=O)O[C@H]1[C@H]2c3cc4c(cc3C=[N+]3CCC(=C[C@@H]1O)[C@H]23)OCO4 [compound 1, 1-O-acetyl-5,6-dehydrolycorine] | 620
